Like-named read-outs stand apart in the source and are kept apart here.
What was measured:
[1] = molecular target: CDK7/Cyclin H/MAT1 complex (Homo sapiens, UniProt P50613); test: CDK7 inhibition assay (Caliper/LabChip EZ Reader kinase assay); format: biochemical; settings: Table 1; CDK7/Cyclin H/MAT1 6 nM, ATP 2 mM, 35 min at 27° C.
Method: (§1) Compounds of the invention were assayed for inhibition of CDK7, CDK9, CDK12, and CDK2 activity at Biortus Biosciences (Jiangyin, Jiangsu Province, P.R. of China) using kinase assays for each CDK developed with a Caliper/LabChip EZ Reader (Perkin Elmer, Waltham, MA).
(§2) Furthermore, the CDK9 inhibition assay used CDK9/Cyclin T1 complex (8 nM) and “5-FAM-CDK9tide” peptide substrate (2 μM, synthesized fluorophore-labeled peptide with the following sequence: 5-FAM-GSRTPMY-NH2 where 5-FAM is defined above and NH2 signifies a C-terminal amide) with 10 mM MgCl2 in the buffer composition listed above. […] Additionally, the CDK2 inhibition assay used CDK2/Cyclin E1 complex (0.5 nM) and “5-FAM-CDK7tide” ([…]) as defined above, with 2 mM MgCl2 in the buffer composition listed above.

CDK2/Cyclin E1 complex = CDK2/Cyclin E1 complex (Homo sapiens, UniProt P24941); test: CDK2 inhibition assay (Caliper/LabChip EZ Reader kinase assay); format: biochemical; settings: Table 1; CDK2/Cyclin E1 0.5 nM, ATP 2 mM, 35 min at 27° C.
Method: as §1, §2

[2] = molecular target: T1, CDK12 (aa686-1082)/Cyclin K complex (Homo sapiens, UniProt Q9NYV4); test: CDK12 inhibition assay (Caliper/LabChip EZ Reader kinase assay); format: biochemical; settings: Table 1; CDK12 (aa686-1082)/Cyclin K 50 nM, ATP 2 mM, 3 hr at 27° C.
T1 construct: CDK12 (aa686-1082)/Cyclin K complex
Method: as §1, §2

CDK9/Cyclin T1 complex = CDK9/Cyclin T1 complex (Homo sapiens, UniProt P50750); test: CDK9 inhibition assay (Caliper/LabChip EZ Reader kinase assay); format: biochemical; settings: Table 1; CDK9/Cyclin T1 8 nM, ATP 2 mM, 15 min at 27° C.
Method: as §1, §2

A673 cells = test: Inhibition of proliferation of A673 cells (CyQUANT, 72 hour); format: cell-based, human; settings: A673 cells, 72 hour, CyQUANT, read-out: Inhibition of Proliferation of A673 Cells (calculated IC50)
Method: A673 cells are a cell line derived from human […] Ewing's sarcoma. Representative compounds of the invention were tested at different concentrations (from […]; 0.5 log serial dilutions) for their ability to inhibit the proliferation of A673 cells. Known CDK inhibitors dinaciclib or N-((1S,3R)-3-((5-chloro-4-(1H-indol-3-yl)pyrimidin-2-yl)amino)cyclohexyl)-5-((E)-4-(dimethylamino)but-2-enamido)picolinamide and triptolide were used as positive controls. Cells were grown in Dulbecco's Modified Eagle's Medium, +10% FBS+1 mM Sodium Pyruvate. The cells were cultured at 37° C. in a humidified chamber in the presence of 5% CO2. Proliferation assays were conducted over a 72 hour time period. CyQUANT® (Life Technologies, Chicago, IL USA) was used to assess the anti-proliferative effects of the compounds following manufacturer's directions and utilizing the reagents supplied with the CyQUANT® kit.

T1 sequence (Q9NYV4 686-1082, species assumed): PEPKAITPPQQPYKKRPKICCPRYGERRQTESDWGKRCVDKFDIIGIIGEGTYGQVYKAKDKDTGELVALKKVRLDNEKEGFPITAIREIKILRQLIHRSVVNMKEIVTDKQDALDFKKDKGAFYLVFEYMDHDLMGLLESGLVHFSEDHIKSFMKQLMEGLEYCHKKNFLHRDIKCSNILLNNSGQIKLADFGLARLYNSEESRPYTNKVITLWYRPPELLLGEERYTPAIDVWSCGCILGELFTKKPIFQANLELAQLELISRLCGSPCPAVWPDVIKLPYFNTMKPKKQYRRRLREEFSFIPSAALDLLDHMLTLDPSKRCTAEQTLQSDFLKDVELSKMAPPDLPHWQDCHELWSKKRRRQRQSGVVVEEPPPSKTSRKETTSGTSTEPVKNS
T1 sequence (O75909 whole entry partner, species assumed, the tested form may be a part): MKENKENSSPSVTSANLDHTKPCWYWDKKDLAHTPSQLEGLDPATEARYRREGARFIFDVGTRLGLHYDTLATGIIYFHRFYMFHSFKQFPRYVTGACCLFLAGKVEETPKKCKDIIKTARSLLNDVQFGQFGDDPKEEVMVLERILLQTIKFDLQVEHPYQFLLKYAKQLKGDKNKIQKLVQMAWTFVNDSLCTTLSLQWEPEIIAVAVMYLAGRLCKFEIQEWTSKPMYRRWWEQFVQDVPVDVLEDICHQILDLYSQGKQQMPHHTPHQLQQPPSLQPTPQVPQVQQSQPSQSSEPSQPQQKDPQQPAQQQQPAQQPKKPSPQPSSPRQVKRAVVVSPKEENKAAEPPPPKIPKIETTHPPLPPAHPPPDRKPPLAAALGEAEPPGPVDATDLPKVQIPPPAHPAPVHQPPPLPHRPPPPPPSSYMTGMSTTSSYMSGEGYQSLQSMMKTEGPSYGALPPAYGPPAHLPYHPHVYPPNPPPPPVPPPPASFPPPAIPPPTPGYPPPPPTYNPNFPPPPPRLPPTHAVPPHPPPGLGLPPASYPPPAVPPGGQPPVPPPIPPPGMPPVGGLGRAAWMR
Sequence of CDK7/Cyclin H/MAT1 complex (P50613 whole entry, species assumed): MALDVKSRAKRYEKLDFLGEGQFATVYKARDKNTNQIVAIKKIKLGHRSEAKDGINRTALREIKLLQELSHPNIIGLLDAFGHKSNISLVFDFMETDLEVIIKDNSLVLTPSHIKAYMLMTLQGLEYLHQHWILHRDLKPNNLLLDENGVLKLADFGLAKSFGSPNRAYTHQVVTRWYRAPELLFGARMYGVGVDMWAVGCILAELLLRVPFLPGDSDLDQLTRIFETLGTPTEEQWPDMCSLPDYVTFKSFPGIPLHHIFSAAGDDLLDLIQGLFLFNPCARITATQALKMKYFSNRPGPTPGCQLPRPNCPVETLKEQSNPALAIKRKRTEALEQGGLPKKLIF
Sequence of CDK7/Cyclin H/MAT1 complex (P51946 whole entry partner, species assumed): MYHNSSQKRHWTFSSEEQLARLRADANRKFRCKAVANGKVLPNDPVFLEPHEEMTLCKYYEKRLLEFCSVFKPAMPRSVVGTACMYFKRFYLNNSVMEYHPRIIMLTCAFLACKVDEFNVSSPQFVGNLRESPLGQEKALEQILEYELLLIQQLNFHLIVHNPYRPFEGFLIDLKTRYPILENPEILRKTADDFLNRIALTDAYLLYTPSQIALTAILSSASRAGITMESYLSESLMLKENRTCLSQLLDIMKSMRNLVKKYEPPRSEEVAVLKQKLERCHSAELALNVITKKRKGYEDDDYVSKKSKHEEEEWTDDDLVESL
Sequence of CDK7/Cyclin H/MAT1 complex (P51948 whole entry partner, species assumed): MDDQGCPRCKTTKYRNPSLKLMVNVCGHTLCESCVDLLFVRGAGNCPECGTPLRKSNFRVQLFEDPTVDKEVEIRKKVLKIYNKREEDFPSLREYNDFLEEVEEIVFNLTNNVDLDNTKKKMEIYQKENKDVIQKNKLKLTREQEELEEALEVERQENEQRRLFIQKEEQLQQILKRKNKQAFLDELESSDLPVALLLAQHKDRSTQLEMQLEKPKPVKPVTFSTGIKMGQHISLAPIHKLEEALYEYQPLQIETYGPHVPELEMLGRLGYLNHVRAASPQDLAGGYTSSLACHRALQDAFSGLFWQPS
Sequence of CDK9/Cyclin T1 complex (P50750 whole entry, species assumed): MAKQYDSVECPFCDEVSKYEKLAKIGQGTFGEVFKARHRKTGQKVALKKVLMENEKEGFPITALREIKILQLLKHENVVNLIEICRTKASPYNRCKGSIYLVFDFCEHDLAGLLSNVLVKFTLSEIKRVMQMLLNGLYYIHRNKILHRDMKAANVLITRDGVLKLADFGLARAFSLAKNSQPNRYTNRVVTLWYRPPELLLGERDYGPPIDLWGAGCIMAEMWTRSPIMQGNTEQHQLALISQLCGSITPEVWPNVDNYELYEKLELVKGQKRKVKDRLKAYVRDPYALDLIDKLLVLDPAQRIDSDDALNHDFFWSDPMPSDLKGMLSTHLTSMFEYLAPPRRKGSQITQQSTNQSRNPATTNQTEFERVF
Sequence of CDK9/Cyclin T1 complex (O60563 whole entry partner, species assumed): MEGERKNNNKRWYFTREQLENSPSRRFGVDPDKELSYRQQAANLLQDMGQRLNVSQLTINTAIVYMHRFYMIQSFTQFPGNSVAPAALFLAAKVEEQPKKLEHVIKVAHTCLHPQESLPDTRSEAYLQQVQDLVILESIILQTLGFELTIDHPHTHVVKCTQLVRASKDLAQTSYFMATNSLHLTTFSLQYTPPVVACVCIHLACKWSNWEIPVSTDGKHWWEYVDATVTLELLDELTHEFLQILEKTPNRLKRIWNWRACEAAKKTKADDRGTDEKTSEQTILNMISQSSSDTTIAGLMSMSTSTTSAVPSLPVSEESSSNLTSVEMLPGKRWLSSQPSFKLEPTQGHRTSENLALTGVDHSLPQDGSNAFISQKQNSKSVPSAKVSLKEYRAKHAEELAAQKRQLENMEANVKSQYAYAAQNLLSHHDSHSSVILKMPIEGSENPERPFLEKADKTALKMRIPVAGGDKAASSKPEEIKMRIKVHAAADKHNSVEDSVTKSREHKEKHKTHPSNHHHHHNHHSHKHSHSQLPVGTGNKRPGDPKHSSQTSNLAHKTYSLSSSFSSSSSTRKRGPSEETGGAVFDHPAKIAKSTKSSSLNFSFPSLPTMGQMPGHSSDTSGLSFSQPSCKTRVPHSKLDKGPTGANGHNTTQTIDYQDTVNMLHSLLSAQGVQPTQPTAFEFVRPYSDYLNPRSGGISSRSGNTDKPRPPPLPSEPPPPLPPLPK

SMILES | IC50 [1] | IC50 (CDK2/Cyclin E1 complex) | IC50 [2] | IC50 (CDK9/Cyclin T1 complex) | IC50 (A673 cells; Homo sapiens, A673, 72 h) | IC50 (A673 cells)
FC(F)(F)c1cnc(NC2CNCc3ccccc32)nc1-c1c[nH]c2ccccc12 (centres unmarked) [Compound 215] | 0.02 to 0.2 µM | > 5 µM | > 5 µM | > 5 µM | 0.2 to 5 µM | 
COC(C)c1cnc(N[C@H]2CCCNC2)nc1-c1c[nH]c2ccccc12 (some centres unmarked) [Compound 247] | 0.2 to 5 µM | > 5 µM | > 5 µM | > 5 µM | 0.2 to 5 µM | 
CNS(=O)(=O)c1ccc2c(-c3nc(N[C@H]4CCCNC4)ncc3C(F)(F)F)c[nH]c2c1 [Compound 200, N-methyl-3-[2-[[(3S)-3-piperidyl]amino]-5-(trifluoromethyl)pyrimidin-4-yl]-1H-indole-6-sulfonamide] | < 0.02 µM | 0.2 to 5 µM | 0.2 to 5 µM | 0.2 to 5 µM | 0.02 to 0.2 µM | 
CNC(=O)[C@@H]1CNC[C@@H](Nc2ncc(C(F)(F)F)c(-c3c[nH]c4ccccc34)n2)C1 [Compound 256] | 0.02 to 0.2 µM | 0.2 to 5 µM | 0.2 to 5 µM | > 5 µM |  | 0.2 to 5 µM
FC(F)(F)c1cnc(NC2C3CCC2NC3)nc1-c1c[nH]c2ccccc12 (centres unmarked) [Compound 222, N-[4-(1H-indol-3-yl)-5-(trifluoromethyl)pyrimidin-2-yl]-3-azabicyclo [2.2.1]heptan-7-amine] | 0.02 to 0.2 µM | 0.2 to 5 µM | 0.2 to 5 µM | 0.2 to 5 µM | 0.02 to 0.2 µM | 
O=C([C@H]1CC[C@H](Nc2ncc(C(F)(F)F)c(-c3c[nH]c4ccccc34)n2)CN1)N1CCCC1 [Compound 228] | < 0.02 µM | 0.2 to 5 µM | 0.2 to 5 µM | 0.2 to 5 µM | 0.02 to 0.2 µM | 
Cc1nn(C)cc1-c1ccc2c(-c3nc(N[C@H]4CCCNC4)ncc3C(F)(F)F)c[nH]c2c1 [Compound 226, 4-[6-(1,3-dimethylpyrazol-4-yl)-1H-indol-3-yl]-N-[(3S)-3-piperidyl]-5-(trifluoromethyl) pyrimidin-2-amine] | < 0.02 µM | 0.2 to 5 µM | 0.2 to 5 µM | 0.2 to 5 µM | < 0.02 µM | 
N#Cc1cc2[nH]cc(-c3nc(N[C@H]4CCCNC4)ncc3C(F)(F)F)c2cc1F [Compound 197, 5-fluoro-3-[2-[[(3S)-3-piperidyl]amino]-5-(trifluoromethyl)pyrimidin-4-yl]-1H-indole-6-carbonitrile] | < 0.02 µM | 0.2 to 5 µM | 0.2 to 5 µM | 0.2 to 5 µM | < 0.02 µM | 
C=Cc1cnc(N[C@H]2CCCNC2)nc1-c1c[nH]c2ccccc12 [Compound 218] | < 0.02 µM | 0.2 to 5 µM | 0.2 to 5 µM | 0.2 to 5 µM | 0.02 to 0.2 µM | 
FC(F)(F)c1cnc(N[C@H]2CCCNC2)nc1-c1c[nH]c2cc(-c3ccncc3)ccc12 [Compound 224, N-[(3S)-3-piperidyl]-4-[6-(4-pyridyl)-1H-indol-3-yl]-5-(trifluoromethyl) pyrimidin-2-amine] | < 0.02 µM | 0.2 to 5 µM | 0.2 to 5 µM | 0.2 to 5 µM | 0.02 to 0.2 µM | 
FCCc1cnc(N[C@H]2CCCNC2)nc1-c1c[nH]c2ccccc12 [Compound 206] | 0.02 to 0.2 µM | > 5 µM | 0.2 to 5 µM | 0.2 to 5 µM | 0.2 to 5 µM | 
c1ccc2c(-c3nc(N[C@H]4CCCNC4)ncc3C3CC3)c[nH]c2c1 [Compound 135] | 0.02 to 0.2 µM | > 5 µM | > 5 µM | > 5 µM | 0.2 to 5 µM | 
Cc1nc(-c2ccc3c(-c4nc(N[C@H]5CCCNC5)ncc4C(F)(F)F)c[nH]c3c2)n[nH]1 [Compound 235] | < 0.02 µM | 0.2 to 5 µM | 0.2 to 5 µM | 0.2 to 5 µM | 0.2 to 5 µM | 
CC(=O)c1cnc(N[C@H]2CCCNC2)nc1-c1c[nH]c2ccccc12 [Compound 208] | 0.02 to 0.2 µM | > 5 µM | 0.2 to 5 µM | > 5 µM | 0.02 to 0.2 µM | 
CC(C)(O)CCc1cccc2c(-c3nc(N[C@H]4CCCNC4)ncc3C(F)(F)F)c[nH]c12 [Compound 191] | < 0.02 µM | 0.2 to 5 µM | 0.2 to 5 µM | 0.2 to 5 µM |  | < 0.02 µM
FC1(F)CNC[C@@H](Nc2ncc(C(F)(F)F)c(-c3c[nH]c4ccccc34)n2)C1 [Compound 236, N-[(3S)-5,5-difluoro-3-piperidyl]-4-(1H-indol-3-yl)-5-(trifluoromethyl) pyrimidin-2-amine] | < 0.02 µM | 0.2 to 5 µM | 0.2 to 5 µM | 0.2 to 5 µM | 0.02 to 0.2 µM | 
O=C(c1ccc2c(-c3nc(N[C@H]4CCCNC4)ncc3C(F)(F)F)c[nH]c2c1)N1CC[C@@H](O)C1 [Compound 205, [(3R)-3-hydroxypyrrolidin-1-yl]-[3-[2-[[(3S)-3-piperidyl]amino]-5-(trifluoromethyl)pyrimidin-4-yl]-1H-indol-6-yl]methanone] | < 0.02 µM | > 5 µM | 0.2 to 5 µM | > 5 µM | 0.2 to 5 µM | 
O=C(C1CCC(Nc2ncc(C(F)(F)F)c(-c3c[nH]c4ccccc34)n2)CN1)N1CCC(O)C1 (mixture of isomers) [Compound 244] | 0.02 to 0.2 µM | 0.2 to 5 µM | 0.2 to 5 µM | > 5 µM | 0.2 to 5 µM | 
COc1cnc(N[C@H]2CCCNC2)nc1-c1c[nH]c2ccccc12 [Compound 189] | 0.2 to 5 µM | > 5 µM | > 5 µM | > 5 µM |  | 0.2 to 5 µM
Cc1nc(-c2ccc3c(-c4nc(N[C@H]5CCCNC5)ncc4C(F)(F)F)c[nH]c3c2)nn1C [Compound 245, 4-[6-(1,5-dimethyl-1,2,4-triazol-3-yl)-1H-indol-3-yl]-N-[(3S)-3-piperidyl]-5-(trifluoromethyl) pyrimidin-2-amine] | < 0.02 µM | 0.2 to 5 µM | 0.2 to 5 µM | > 5 µM | 0.02 to 0.2 µM | 
CCS(=O)(=O)c1ccc2c(-c3nc(N[C@H]4CCCNC4)ncc3C(F)(F)F)c[nH]c2c1 [Compound 274] | < 0.02 µM | 0.2 to 5 µM | 0.2 to 5 µM | 0.2 to 5 µM | 0.02 to 0.2 µM | 
CC(C)N1CCC[C@H](Nc2ncc(Cl)c(-c3c[nH]c4ccccc34)n2)C1 [Compound 148] | 0.02 to 0.2 µM | > 5 µM | 0.2 to 5 µM | 0.2 to 5 µM | 0.02 to 0.2 µM | 
Fc1cc2[nH]cc(-c3nc(N[C@H]4CCCNC4)ncc3Cl)c2cc1F [Compound 111] | < 0.02 µM | 0.2 to 5 µM | 0.02 to 0.2 µM | 0.02 to 0.2 µM | 0.02 to 0.2 µM | 
CC(C)C1CCC(Nc2ncc(C(F)(F)F)c(-c3c[nH]c4ccccc34)n2)CN1 (centres unmarked) [Compound 260] | 0.2 to 5 µM | > 5 µM | 0.2 to 5 µM | > 5 µM | 0.2 to 5 µM | 
Brc1cnc(NC2CCCNC2)nc1-c1c[nH]c2ccccc12 (stereo in doubt) [Compound 133] | < 0.02 µM | 0.02 to 0.2 µM | 0.02 to 0.2 µM | 0.2 to 5 µM | < 0.02 µM | 
CCc1cnc(N[C@H]2CCCNC2)nc1-c1n[nH]c2ncccc12 [Compound 262, 5-ethyl-N-[(3S)-3-piperidyl]-4-(1H-pyrazolo[3,4-b]pyridin-3-yl)pyrimidin-2-amine] | < 0.02 µM | 0.2 to 5 µM | 0.2 to 5 µM | 0.2 to 5 µM | 0.02 to 0.2 µM | 
N#Cc1cc(-c2ccc3c(-c4nc(N[C@H]5CCCNC5)ncc4C(F)(F)F)c[nH]c3c2)c[nH]1 [Compound 233, 4-[3-[2-[[(3S)-3-piperidyl]amino]-5-(trifluoromethyl)pyrimidin-4-yl]-1H-indol-6-yl]-1H-pyrrole-2-carbonitrile] | < 0.02 µM | 0.2 to 5 µM | 0.2 to 5 µM | 0.2 to 5 µM | 0.02 to 0.2 µM | 
FC(F)(F)c1cnc(N[C@H]2CNC[C@@H](c3nnc4ccccn34)C2)nc1-c1c[nH]c2ccccc12 [Compound 268] | 0.2 to 5 µM | > 5 µM | 0.2 to 5 µM | > 5 µM |  | 0.2 to 5 µM
